Values after ≈ are worked out from the molar mass of the structure shown.
Key:
Staphylococcus aureus [1] = assay: Antibacterial activity against Methicillin-resistant Staphylococcus aureus ATCC 33591 assessed as bacterial growth inhibition incubated for 20 to 24 hrs by microbroth serial dilution assay; type: functional; settings: time 20-24 hrs
Staphylococcus aureus [2] = assay: Antibacterial activity against Methicillin-resistant Staphylococcus aureus ATCC 43300 assessed as bacterial growth inhibition incubated for 20 to 24 hrs by microbroth serial dilution assay; type: functional; settings: time 20-24 hrs
[3] = tested on: Staphylococcus epidermidis; assay: Antibacterial activity against Methicillin-resistant Staphylococcus epidermidis ATCC 51625 assessed as bacterial growth inhibition incubated for 20 to 24 hrs by microbroth serial dilution assay; type: functional; settings: time 20-24 hrs
[4] = tested on: Staphylococcus epidermidis; assay: Antibacterial activity against Methicillin-sensitive Staphylococcus epidermidis ATCC 12228 assessed as bacterial growth inhibition incubated for 20 to 24 hrs by microbroth serial dilution assay; type: functional; settings: time 20-24 hrs
Staphylococcus aureus [5] = assay: Antibacterial activity against Staphylococcus aureus ATCC 25923 assessed as bacterial growth inhibition incubated for 20 to 24 hrs by microbroth serial dilution assay; type: functional; settings: time 20-24 hrs
Staphylococcus aureus [6] = assay: Selectivity ratio of MBC for antibacterial activity against Methicillin-resistant Staphylococcus aureus ATCC 33591 to MIC for antibacterial activity against Methicillin-resistant Staphylococcus aureus ATCC 33591; type: functional
[7] = tested on: Staphylococcus epidermidis; assay: Selectivity ratio of MBC for antibacterial activity against Methicillin-sensitive Staphylococcus epidermidis […] to MIC for antibacterial activity against Methicillin-sensitive Staphylococcus epidermidis […]; type: functional
Staphylococcus aureus [8] = assay: Selectivity ratio of MBC for antibacterial activity against Staphylococcus aureus to MIC for antibacterial activity against Staphylococcus aureus; type: functional
Staphylococcus aureus [9] = assay: Antibacterial activity against Methicillin-sensitive Staphylococcus aureus ATCC 29213 assessed as bacterial growth inhibition incubated for 20 to 24 hrs by microbroth serial dilution assay
Staphylococcus aureus [10] = assay: Selectivity ratio of MBC for antibacterial activity against Methicillin-sensitive Staphylococcus aureus ATCC 29213 to MIC for antibacterial activity against Methicillin-sensitive Staphylococcus aureus ATCC 29213

SMILES | MIC (Staphylococcus aureus [1]) | MIC (Staphylococcus aureus [2]) | MIC [3] | MIC [4] | MIC (Staphylococcus aureus [5]) | Ratio (Staphylococcus aureus [6]) | Ratio [7] | Ratio (Staphylococcus aureus [8]) | MIC (Staphylococcus aureus [9]) | Ratio (Staphylococcus aureus [10])
C=C[C@]1(C)C[C@@H](OC(=O)CSc2nc(N)nc3c2ncn3C(=O)NCc2ccccc2OC)[C@@]2(C)C3C(=O)CC[C@@]3(CC[C@H]2C)[C@@H](C)[C@@H]1O (stereo partly drawn) | 0.125 µg/mL (≈ 0.181 µM) | 0.0625 µg/mL (≈ 0.0905 µM) | 0.0625 µg/mL (≈ 0.0905 µM) | 0.0156 µg/mL (≈ 0.0226 µM) | 0.125 µg/mL (≈ 0.181 µM) | 4 | >4 | >4 | 0.0625 µg/mL (≈ 0.0905 µM) | 2
C=C[C@]1(C)C[C@@H](OC(=O)CSc2nc(N)nc3c2ncn3C(=O)Nc2ccccc2OC)[C@@]2(C)C3C(=O)CC[C@@]3(CC[C@H]2C)[C@@H](C)[C@@H]1O (stereo partly drawn) | 0.125 µg/mL (≈ 0.185 µM) | 0.25 µg/mL (≈ 0.369 µM) | 0.125 µg/mL (≈ 0.185 µM) | 0.0156 µg/mL (≈ 0.023 µM) | 0.25 µg/mL (≈ 0.369 µM) |  | >4 | >4 | 0.125 µg/mL (≈ 0.185 µM) | 2
C=C[C@]1(C)C[C@@H](OC(=O)CSc2nc(N)nc3c2ncn3C(=O)Nc2ccccc2)[C@@]2(C)C3C(=O)CC[C@@]3(CC[C@H]2C)[C@@H](C)[C@@H]1O (stereo partly drawn) | 0.125 µg/mL (≈ 0.193 µM) | 0.0625 µg/mL (≈ 0.0966 µM) | 0.125 µg/mL (≈ 0.193 µM) | 0.0156 µg/mL (≈ 0.0241 µM) | 0.125 µg/mL (≈ 0.193 µM) |  | >4 | >4 | 0.125 µg/mL (≈ 0.193 µM) | 4
C=C[C@]1(C)C[C@@H](OC(=O)CSc2nc(N)nc3c2ncn3C(=O)c2ccc([N+](=O)[O-])cc2)[C@@]2(C)C3C(=O)CC[C@@]3(CC[C@H]2C)[C@@H](C)[C@@H]1O (stereo partly drawn) | 0.125 µg/mL (≈ 0.185 µM) | 0.0625 µg/mL (≈ 0.0923 µM) | 0.0625 µg/mL (≈ 0.0923 µM) | < 0.0078 µg/mL | 0.125 µg/mL (≈ 0.185 µM) |  | >4 | >4 | 0.0625 µg/mL (≈ 0.0923 µM) | 
C=C[C@]1(C)C[C@@H](OC(=O)CSc2nc(NC(=O)CN3CCC(O)CC3)nc3[nH]cnc23)[C@@]2(C)C3C(=O)CC[C@@]3(CC[C@H]2C)[C@@H](C)[C@@H]1O (stereo partly drawn) | 16 µg/mL (≈ 23.9 µM) | 32 µg/mL (≈ 47.8 µM) | 2 µg/mL (≈ 2.99 µM) | 2 µg/mL (≈ 2.99 µM) | 16 µg/mL (≈ 23.9 µM) |  | >4 | >4 | 16 µg/mL (≈ 23.9 µM) | 
C=C[C@]1(C)C[C@@H](OC(=O)CSc2nc(NC(=O)CN3CCCCC3)nc3[nH]cnc23)[C@@]2(C)C3C(=O)CC[C@@]3(CC[C@H]2C)[C@@H](C)[C@@H]1O (stereo partly drawn) | 0.125 µg/mL (≈ 0.191 µM) | 0.125 µg/mL (≈ 0.191 µM) | 0.5 µg/mL (≈ 0.766 µM) | 0.5 µg/mL (≈ 0.766 µM) | 0.0625 µg/mL (≈ 0.0957 µM) |  | >4 | >4 | 0.25 µg/mL (≈ 0.383 µM) | 
C=C[C@]1(C)C[C@@H](OC(=O)CSc2nc(N)nc3c2ncn3C(=O)Nc2ccc(C(C)=O)cc2)[C@@]2(C)C3C(=O)CC[C@@]3(CC[C@H]2C)[C@@H](C)[C@@H]1O (stereo partly drawn) | 0.0625 µg/mL (≈ 0.0907 µM) | 0.125 µg/mL (≈ 0.181 µM) | 0.125 µg/mL (≈ 0.181 µM) | 0.0156 µg/mL (≈ 0.0226 µM) | 0.062 µg/mL (≈ 0.09 µM) |  | >4 | >4 | 0.125 µg/mL (≈ 0.181 µM) | 4
C=C[C@]1(C)C[C@@H](OC(=O)CSc2nc(NC(=O)CCl)nc3[nH]cnc23)[C@@]2(C)C3C(=O)CC[C@@]3(CC[C@H]2C)[C@@H](C)[C@@H]1O (stereo partly drawn) | 0.5 µg/mL (≈ 0.828 µM) | 0.5 µg/mL (≈ 0.828 µM) | 0.25 µg/mL (≈ 0.414 µM) | 0.0156 µg/mL (≈ 0.0258 µM) | 0.5 µg/mL (≈ 0.828 µM) |  | >4 | >4 | 0.5 µg/mL (≈ 0.828 µM) | 
C=C[C@]1(C)C[C@@H](OC(=O)CSc2nc(N)nc3c2ncn3C(=O)Nc2cccc(NC(=O)OC(C)(C)C)c2)[C@@]2(C)C3C(=O)CC[C@@]3(CC[C@H]2C)[C@@H](C)[C@@H]1O (stereo partly drawn) | 0.25 µg/mL (≈ 0.328 µM) | 0.25 µg/mL (≈ 0.328 µM) | 0.125 µg/mL (≈ 0.164 µM) | 0.0156 µg/mL (≈ 0.0205 µM) | 0.25 µg/mL (≈ 0.328 µM) | 4 | >4 | >4 | 0.25 µg/mL (≈ 0.328 µM) | 2
C=C[C@]1(C)C[C@@H](OC(=O)CSc2nc(N)nc3c2ncn3C(=O)NCc2cccc([N+](=O)[O-])c2)[C@@]2(C)C3C(=O)CC[C@@]3(CC[C@H]2C)[C@@H](C)[C@@H]1O (stereo partly drawn) | 0.0312 µg/mL (≈ 0.0443 µM) | 0.0625 µg/mL (≈ 0.0885 µM) | 0.0625 µg/mL (≈ 0.0885 µM) | < 0.0078 µg/mL | 0.0625 µg/mL (≈ 0.0885 µM) |  | >4 | >4 | 0.0625 µg/mL (≈ 0.0885 µM) | 4
C=C[C@]1(C)C[C@@H](OC(=O)CSc2nc(N)nc3c2ncn3C(=O)NCCc2ccccc2)[C@@]2(C)C3C(=O)CC[C@@]3(CC[C@H]2C)[C@@H](C)[C@@H]1O (stereo partly drawn) |  |  |  | < 0.0078 µg/mL |  |  |  |  |  | 
C=C[C@]1(C)C[C@@H](OC(=O)CSc2nc(NC(=O)CN3CCN(C)CC3)nc3[nH]cnc23)[C@@]2(C)C3C(=O)CC[C@@]3(CC[C@H]2C)[C@@H](C)[C@@H]1O (stereo partly drawn) | 16 µg/mL (≈ 24 µM) | 32 µg/mL (≈ 47.9 µM) | 1 µg/mL (≈ 1.5 µM) | 4 µg/mL (≈ 5.99 µM) | 16 µg/mL (≈ 24 µM) |  | >4 | >4 | 8 µg/mL (≈ 12 µM) | 4
